# Test system: 945468-187-T-J3-PDC spheroids with HUVEC/MSC, viability
# Assay: Anticancer human tumor 945468-187-T-J3-PDC patient-derived rectal carcinoma cell line growth inhibition [PI3K]
# Settings: for IC50: curve of first compound; for viability, T/C: stronger effect = lower value
# In short: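 Three cell types, namely tumor cells, endothelial cells and mesenchymal stem cells, formed each spheroid. Combinations with four PI3K inhibitors were screened at clinically achievable concentrations decreasing by half-log, and spheroid viability was recorded.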
# 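Note: spheroids exposed to agents for 7 days before viability read.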
# 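Throughout, for viability, T/C: 100% = DMSO vehicle control viability.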
structure (smiles),measurement,setting,value
CNC(=O)c1ccc(N2C(=S)N(c3ccc(C#N)c(C(F)(F)F)c3)C(=O)C2(C)C)cc1F + CC(Nc1ncnc2nc[nH]c12)c1cc2cccc(Cl)c2c(=O)n1-c1ccccc1,IC50,second compound 0.0316 µM,> 10 µM
same,IC50,second compound 0.1 µM,> 10 µM
same,IC50,second compound 0.316 µM,> 10 µM
same,IC50,second compound 1 µM,> 10 µM
same,IC50,second compound 3.16 µM,> 10 µM
same,IC50,second compound 10 µM,> 10 µM
same,"viability, T/C","second compound 0.0316 µM, first compound 0.0316 µM",101%
same,"viability, T/C","second compound 0.0316 µM, first compound 0.1 µM",113%
same,"viability, T/C","second compound 0.0316 µM, first compound 0.316 µM",98.4%
same,"viability, T/C","second compound 0.0316 µM, first compound 1 µM",102%
same,"viability, T/C","second compound 0.0316 µM, first compound 3.16 µM",98.4%
same,"viability, T/C","second compound 0.0316 µM, first compound 10 µM",100%
same,"viability, T/C","second compound 0.1 µM, first compound 0.0316 µM",99.7%
same,"viability, T/C","second compound 0.1 µM, first compound 0.1 µM",109%
same,"viability, T/C","second compound 0.1 µM, first compound 0.316 µM",94.1%
same,"viability, T/C","second compound 0.1 µM, first compound 1 µM",116%
same,"viability, T/C","second compound 0.1 µM, first compound 3.16 µM",103%
same,"viability, T/C","second compound 0.1 µM, first compound 10 µM",106%
same,"viability, T/C","second compound 0.316 µM, first compound 0.0316 µM",99.5%
same,"viability, T/C","second compound 0.316 µM, first compound 0.1 µM",93.8%
same,"viability, T/C","second compound 0.316 µM, first compound 0.316 µM",100%
same,"viability, T/C","second compound 0.316 µM, first compound 1 µM",108%
same,"viability, T/C","second compound 0.316 µM, first compound 3.16 µM",101%
same,"viability, T/C","second compound 0.316 µM, first compound 10 µM",97.1%
same,"viability, T/C","second compound 1 µM, first compound 0.0316 µM",96.5%
same,"viability, T/C","second compound 1 µM, first compound 0.1 µM",102%
same,"viability, T/C","second compound 1 µM, first compound 0.316 µM",107%
same,"viability, T/C","second compound 1 µM, first compound 1 µM",106%
same,"viability, T/C","second compound 1 µM, first compound 3.16 µM",105%
same,"viability, T/C","second compound 1 µM, first compound 10 µM",94.8%
same,"viability, T/C","second compound 3.16 µM, first compound 0.0316 µM",102%
same,"viability, T/C","second compound 3.16 µM, first compound 0.1 µM",113%
same,"viability, T/C","second compound 3.16 µM, first compound 0.316 µM",95%
same,"viability, T/C","second compound 3.16 µM, first compound 1 µM",107%
same,"viability, T/C","second compound 3.16 µM, first compound 3.16 µM",92.9%
same,"viability, T/C","second compound 3.16 µM, first compound 10 µM",110%
same,"viability, T/C","second compound 10 µM, first compound 0.0316 µM",99.5%
same,"viability, T/C","second compound 10 µM, first compound 0.1 µM",99.2%
same,"viability, T/C","second compound 10 µM, first compound 0.316 µM",107%
same,"viability, T/C","second compound 10 µM, first compound 1 µM",99.2%
same,"viability, T/C","second compound 10 µM, first compound 3.16 µM",105%
same,"viability, T/C","second compound 10 µM, first compound 10 µM",109%
Cn1cnc2c(F)c(Nc3ccc(Br)cc3Cl)c(C(=O)NOCCO)cc21 + CC(Nc1ncnc2nc[nH]c12)c1cc2cccc(Cl)c2c(=O)n1-c1ccccc1,IC50,second compound 0.0316 µM,> 3 µM
same,IC50,second compound 0.1 µM,> 3 µM
same,IC50,second compound 0.316 µM,> 3 µM
same,IC50,second compound 1 µM,> 3 µM
same,IC50,second compound 3.16 µM,> 3 µM
same,IC50,second compound 10 µM,> 3 µM
same,"viability, T/C","second compound 0.0316 µM, first compound 0.00949 µM",106%
same,"viability, T/C","second compound 0.0316 µM, first compound 0.03 µM",103%
same,"viability, T/C","second compound 0.0316 µM, first compound 0.0949 µM",116%
same,"viability, T/C","second compound 0.0316 µM, first compound 0.3 µM",115%
same,"viability, T/C","second compound 0.0316 µM, first compound 0.949 µM",104%
same,"viability, T/C","second compound 0.0316 µM, first compound 3 µM",87.2%
same,"viability, T/C","second compound 0.1 µM, first compound 0.00949 µM",96%
same,"viability, T/C","second compound 0.1 µM, first compound 0.03 µM",98%
same,"viability, T/C","second compound 0.1 µM, first compound 0.0949 µM",109%
same,"viability, T/C","second compound 0.1 µM, first compound 0.3 µM",104%
same,"viability, T/C","second compound 0.1 µM, first compound 0.949 µM",101%
same,"viability, T/C","second compound 0.1 µM, first compound 3 µM",95.6%
same,"viability, T/C","second compound 0.316 µM, first compound 0.00949 µM",100%
same,"viability, T/C","second compound 0.316 µM, first compound 0.03 µM",104%
same,"viability, T/C","second compound 0.316 µM, first compound 0.0949 µM",108%
same,"viability, T/C","second compound 0.316 µM, first compound 0.3 µM",111%
same,"viability, T/C","second compound 0.316 µM, first compound 0.949 µM",112%
same,"viability, T/C","second compound 0.316 µM, first compound 3 µM",89%
same,"viability, T/C","second compound 1 µM, first compound 0.00949 µM",97.2%
same,"viability, T/C","second compound 1 µM, first compound 0.03 µM",99.6%
same,"viability, T/C","second compound 1 µM, first compound 0.0949 µM",110%
same,"viability, T/C","second compound 1 µM, first compound 0.3 µM",103%
same,"viability, T/C","second compound 1 µM, first compound 0.949 µM",106%
same,"viability, T/C","second compound 1 µM, first compound 3 µM",84.1%
same,"viability, T/C","second compound 3.16 µM, first compound 0.00949 µM",94.5%
same,"viability, T/C","second compound 3.16 µM, first compound 0.03 µM",119%
same,"viability, T/C","second compound 3.16 µM, first compound 0.0949 µM",105%
same,"viability, T/C","second compound 3.16 µM, first compound 0.3 µM",107%
same,"viability, T/C","second compound 3.16 µM, first compound 0.949 µM",102%
same,"viability, T/C","second compound 3.16 µM, first compound 3 µM",73.8%
same,"viability, T/C","second compound 10 µM, first compound 0.00949 µM",101%
same,"viability, T/C","second compound 10 µM, first compound 0.03 µM",98.8%
same,"viability, T/C","second compound 10 µM, first compound 0.0949 µM",97.2%
same,"viability, T/C","second compound 10 µM, first compound 0.3 µM",98.4%
same,"viability, T/C","second compound 10 µM, first compound 0.949 µM",93.7%
same,"viability, T/C","second compound 10 µM, first compound 3 µM",60.6%
